US20130244255A1, “ANTIBODIES DIRECTED TO GPNMB AND USES THEREOF” (priority 2006, published 2013)

What was measured:
[1] = system: SK-MEL-2 melanoma xenografts; assay: Dosing interval (schedule dependency) study, SK-MEL-2 xenograft; format: in vivo, athymic mice
Method: Nota bene: Please note that, although all 5 sets of groups in this experiment (e.g., groups 5, 6, and 7 represent one set and received 32, 8, and 2 mg/kg cumulative dose, respectively) received the same cumulative doses, the first set receiving the “bolus dose” is different from the other 4 sets. The Cmax for each group in the “bolus” set was likely four-fold higher that the Cmax for the other 4 sets (see section on pharmacokinetics for dose-linearity after i.v. administration), since 4 sets of groups received 4 treatments, whereas the first set received only one “bolus” treatment (see column 7, Table 49 below).
The aggregate responses for each set of groups, where a set is defined as 3 groups of graduated dosage levels but one dosage interval (groups 5, 6, and 7 represent 1 set, all of which were treated with a dosing interval of 1 day) are shown in FIG. 7. […] However, this effect was not significant (P<0.2904).
The original design of this study was expanded to include an examination of the effects of various dosage levels. For each set, one group of animals received a cumulative dose of 8 mg/kg, which, from previous studies employing a dosing interval of 4 days, provided consistent therapeutic effects leading to long-term tumor-free animals. In addition, cumulative doses of 2 mg/kg and 32 mg/kg were employed.

SK-Mel-2 cells = assay: Clonogenic assay, SK-Mel-2 cells after GPNMB siRNA; format: cell-based, human
Method: Cells were plated in 96-well plates and allowed to recover overnight. […] The cells were then transferred into 6-well plates and allowed to form colonies. Colonies were stained with Giemsa stain (Sigma) and counted. The surviving cell fractions were calculated based upon the ratio of the treated sample and the untreated control. The results were expressed as a percentage of control using GraphPad Prism Version 4 software.
The amount of GPNMB expression was reduced for at least 7 days after transfection.

TK10 = assay: Anti-GPNMB antibody mediated indirect cell killing (saporin secondary conjugate, colony count); format: cell-based; settings: antibody at 50 ng/mL with goat anti-human IgG-saporin 100 ng/well
Method: UACC-62, a GPNMB antigen expressing cell line, and TK10, a non-expressing cell line were plated onto flat bottom 96-well tissue culture plates (Becton Dickinson, Franklin Lakes, N.J., USA) at a density of 3000 cells per well. Once the cells reached ˜25% confluency, 100 ng/well of secondary antibody-toxin conjugate (goat anti-human IgG-saporin; Advanced Targeting Systems, San Diego, USA, HUM-ZAP; cat #IT-22) was added. […] An anti-EGFR monoclonal antibody (MS-269-PABX, NeoMarkers, Fremont, Calif., USA) was used as a positive primary antibody control. Chemotherapy reagent 5-FU at 600 uM was used as a positive reagent control. On day 5, the cells were trypsinized, transferred to 6-well tissue culture plates and incubated at 37° C. Plates were examined daily and between 8-10 days, all plates were Giemsa stained and colonies were counted.

CG56972 = molecular target: T1, CG56972 (Homo sapiens, UniProt Q14956); assay: Flow cytometry of CR011 binding to cell surface CG56972/GPNMB (GMR)
T1 construct: endogenous in cells; host or cells: SK-MEL-2, XF-498, U-118-MG, SNB-78, SF-539, SF-268 and further human lines (ATCC / NCI)
T1 sequence (Q14956 23-572): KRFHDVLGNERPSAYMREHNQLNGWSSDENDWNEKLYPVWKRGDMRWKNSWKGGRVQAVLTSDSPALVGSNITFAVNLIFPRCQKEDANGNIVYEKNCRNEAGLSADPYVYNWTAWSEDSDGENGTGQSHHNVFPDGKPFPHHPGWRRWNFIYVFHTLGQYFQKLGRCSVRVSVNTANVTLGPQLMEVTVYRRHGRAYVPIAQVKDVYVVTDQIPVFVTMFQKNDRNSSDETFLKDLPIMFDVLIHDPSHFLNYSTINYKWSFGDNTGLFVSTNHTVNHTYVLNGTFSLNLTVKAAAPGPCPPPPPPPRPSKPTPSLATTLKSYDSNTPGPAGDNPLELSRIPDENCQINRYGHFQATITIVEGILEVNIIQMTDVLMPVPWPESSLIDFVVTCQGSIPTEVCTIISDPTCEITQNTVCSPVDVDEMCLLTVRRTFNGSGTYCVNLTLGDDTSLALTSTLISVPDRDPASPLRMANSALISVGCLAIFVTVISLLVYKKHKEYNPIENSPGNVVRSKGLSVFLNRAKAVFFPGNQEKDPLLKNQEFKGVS
Method: (§1) Quantitative analysis of GPNMB expression on the cell surface of cell lines was determined by flow cytometry. […] Cells were fixed in 1% paraformaldehyde/PBS and examined on a Becton Dickinson FACSCalibur flow cytometer. Data analysis was performed with Becton Dickinson Cell Quest software version 3.3 and the geometric mean fluorescence intensity ratio (GMR) was determined for each cell type.
as §1, with “CG56972” for “GPNMB”, “the” for “the cell”, “cytometry (FACS).” for “cytometry.”

Substance | complete regressors ([1]; 2 mg/kg cumulative dose) [%] | complete regressions ([1]; 8 mg/kg cumulative dose, all dosing intervals (28/30)) [%] | complete regressions ([1]; cumulative dose of 32 mg/kg, all dosing intervals (30 test animals)) [%] | schedule dependency of anti-tumor effects ([1]; dosing intervals 0, 1, 4, 8, 16 days) | sensitivity of SK-Mel-2 cells to growth-inhibitory activity following siRNA-mediated GPNMB knockdown (SK-Mel-2 cells) | cell death in GPNMB negative TK10 cells (TK10) | surface staining above control mAb background (CG56972; SF-268, CR011 10 μg/mL) | surface staining above isotype control mAb background (CG56972; SF-539, CR011 10 μg/mL) | cell surface staining (in words) (CG56972; SK-MEL-2) | surface staining above isotype control mAb background (CG56972; SNB-78, CR011 10 μg/mL) | surface staining above isotype control mAb background (CG56972; U-118-MG, CR011 10 μg/mL) | surface staining above isotype control mAb background (CG56972; XF-498, CR011 10 μg/mL)
CR011-vcMMAE: CR011 conjugated to monomethyl auristatin E through a protease cleavable valine-citrulline linker; approx. 4 drugs per antibody | 13 | 93 | 100 | not schedule-dependent | less sensitive |  |  |  |  |  |  | 
CR011: fully human monoclonal antibody that specifically binds to GPNMB; VH SEQ ID NO: 20, VL SEQ ID NO: 29 |  |  |  |  |  | less than 24% | around 1.5 fold | at least 1.5 fold | strong cell surface staining | at least 1.5 fold | at least 1.5 fold | at least 1.5 fold
